Test results from patent publication US12448395B2 (BRISTOL-MYERS SQUIBB COMPANY, priority 2019, dated 2025).
pIC50: −log10 of the molar value.

The compounds below were run against T1, human TLR9 (Homo sapiens, UniProt Q9NR96) (assay: TLR9 inhibition reporter assay (HEK-Blue SEAP, ODN2006 stimulation)). Conditions: HEK-Blue cells overexpressing human TLR9, ODN2006 5 nM.
T1 sequence (Q9NR96 26-1032): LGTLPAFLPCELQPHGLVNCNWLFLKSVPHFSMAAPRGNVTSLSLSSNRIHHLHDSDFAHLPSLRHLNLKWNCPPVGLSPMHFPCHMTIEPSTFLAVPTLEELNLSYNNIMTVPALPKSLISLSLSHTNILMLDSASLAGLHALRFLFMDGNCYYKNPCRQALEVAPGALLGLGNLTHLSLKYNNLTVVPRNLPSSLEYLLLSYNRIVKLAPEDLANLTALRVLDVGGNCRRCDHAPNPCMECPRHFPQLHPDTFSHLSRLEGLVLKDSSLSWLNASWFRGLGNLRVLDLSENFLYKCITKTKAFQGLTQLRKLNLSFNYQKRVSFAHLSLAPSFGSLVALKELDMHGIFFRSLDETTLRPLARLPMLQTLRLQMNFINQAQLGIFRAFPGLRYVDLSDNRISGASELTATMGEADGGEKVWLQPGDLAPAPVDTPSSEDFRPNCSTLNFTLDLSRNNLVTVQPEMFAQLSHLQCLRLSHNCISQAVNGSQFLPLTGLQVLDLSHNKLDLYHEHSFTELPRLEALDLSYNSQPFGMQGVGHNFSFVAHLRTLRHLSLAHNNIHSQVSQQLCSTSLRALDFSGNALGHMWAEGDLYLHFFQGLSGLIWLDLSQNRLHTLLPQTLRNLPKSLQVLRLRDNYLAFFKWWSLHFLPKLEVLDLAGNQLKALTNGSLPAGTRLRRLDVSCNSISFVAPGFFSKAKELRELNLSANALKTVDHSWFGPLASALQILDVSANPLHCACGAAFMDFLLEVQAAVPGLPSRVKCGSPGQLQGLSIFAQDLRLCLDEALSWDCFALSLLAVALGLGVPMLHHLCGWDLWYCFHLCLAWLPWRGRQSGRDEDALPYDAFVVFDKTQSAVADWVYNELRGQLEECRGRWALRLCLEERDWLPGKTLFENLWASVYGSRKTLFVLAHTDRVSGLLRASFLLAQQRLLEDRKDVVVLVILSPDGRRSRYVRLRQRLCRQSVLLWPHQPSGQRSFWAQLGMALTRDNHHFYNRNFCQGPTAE
Type: cell-based
Experimental: (§1) TLR7/8/9 Inhibition Reporter Assays
(§2) HEK-Blue™-cells (Invivogen) overexpressing human TLR7, TLR8 or TLR9 receptors were used for screening inhibitors of these receptors using an inducible SEAP (secreted embryonic alkaline phosphatase) reporter gene under the control of the IFN-β minimal promoter fused to five NF-κB and AP-1-binding sites. Briefly, cells are seeded into Greiner 384 well plates (15000 cells per well for TLR7, 20,000 for TLR8 and 25,000 for TLR9) and then treated with test compounds in DMSO to yield a final dose response concentration range of 0.05 nM-50 μM. After a 30 minute compound pre-treatment at room temperature, the cells are then stimulated with a TLR7 ligand (gardiquimod at a final concentration of 7.5 μM), TLR8 ligand (R848 at a final concentration of 15.9 μM) or TLR9 ligand (ODN2006 at a final concentration of 5 nM) to activate NF-κB and AP-1 which induce the production of SEAP. After a 22 hour incubation at 37° C., 5% CO2, SEAP levels are determined with the addition of HEK-Blue™ Detection reagent (Invivogen), a cell culture medium that allows for detection of SEAP, according to manufacturer's specifications. The percent inhibition is determined as the % reduction in the HEK-Blue signal present in wells treated with agonist plus DMSO alone compared to wells treated with a known inhibitor.

Q: With Cc1cc(-c2[nH]c3sc(N4CCN(CC(C)(C)O)C[C@H]4C)nc3c2C(C)C)cn2ncnc12 [Example 359, (R)-1-(4-(6-isopropyl-5-(8-methyl-[1,2,4]triazolo[1,5-a]pyridin-6-yl)-4H-pyrrolo[3,2-d]thiazol-2-yl)-3-methylpiperazin-1-yl)-2-methylpropan-2-ol] as the compound, how does the pIC50 read?
A: The pIC50 was under 4.30.

Q: How did the pIC50 turn out when Cc1c(-c2[nH]c3sc(N4CCN(C(=O)C5CCS(=O)(=O)CC5)C[C@@H]4C)nc3c2C(C)C)cn2ncnc2c1C [Example 347, (S)-(4-(5-(7,8-dimethyl-[1,2,4]triazolo[1,5-a]pyridin-6-yl)-6-isopropyl-4H-pyrrolo[3,2-d]thiazol-2-yl)-3-methylpiperazin-1-yl)(1,1-dioxidotetrahydro-2H-thiopyran-4-yl)methanone] was run?
A: The pIC50 was under 4.30.

Q: Cc1c(-c2[nH]c3sc(C4CCN(C5COC5)CC4)nc3c2C(C)C)cn2ncnc2c1C [Example 43, 5-(7,8-dimethyl-[1,2,4]triazolo[1,5-a]pyridin-6-yl)-6-isopropyl-2-(1-(oxetan-3-yl)piperidin-4-yl)-4H-pyrrolo[3,2-d]thiazole] was tested. Which pIC50 did it give?
A: Its pIC50 is under 4.30.

Q: CC(=O)N1CCC(c2nc3c(C(C)C)c(-c4cn5ncnc5c(C)c4C)[nH]c3s2)CC1 [Example 59, 1-(4-(5-(7,8-dimethyl-[1,2,4]triazolo[1,5-a]pyridin-6-yl)-6-isopropyl-4H-pyrrolo[3,2-d]thiazol-2-yl)piperidin-1-yl)ethan-1-one] was tested. Which pIC50 did it give?
A: The pIC50 was under 4.30.

Q: How did the pIC50 turn out when CC(C)c1c(-c2cn(C)c3ncccc23)[nH]c2sc(C3CCN(C4COC4)CC3)nc12 [Example 34, 6-isopropyl-5-(1-methyl-1H-pyrrolo[2,3-b]pyridin-3-yl)-2-(1-(oxetan-3-yl)piperidin-4-yl)-4H-pyrrolo[3,2-d]thiazole] was run?
A: Its pIC50 is under 4.30.

Q: With CNC(=O)CN1CCN(c2nc3c(C(C)C)c(-c4cn5ncnc5c(C)c4C)[nH]c3s2)[C@H](C)C1 [Example 315, (R)-2-(4-(5-(7,8-dimethyl-[1,2,4]triazolo[1,5-a]pyridin-6-yl)-6-isopropyl-4H-pyrrolo[3,2-d]thiazol-2-yl)-3-methylpiperazin-1-yl)-N-methylacetamide] as the compound, how does the pIC50 read?
A: The pIC50 was under 4.30.

Q: With CNC(=O)CN1CCC(c2nc3c(C(C)C)c(-c4cn(C)c(=O)c(C)c4C)[nH]c3s2)CC1 [Example 63, 2-(4-(6-isopropyl-5-(1,4,5-trimethyl-6-oxo-1,6-dihydropyridin-3-yl)-4H-pyrrolo[3,2-d]thiazol-2-yl)piperidin-1-yl)-N-methylacetamide] as the compound, how does the pIC50 read?
A: Its pIC50 is under 4.30.

Q: How did the pIC50 turn out when CC(C)c1c(-c2cn(C)c3ncccc23)[nH]c2sc(C3CCN(C(=O)CN(C)C)CC3)nc12 [Example 32, 2-(dimethylamino)-1-(4-(6-isopropyl-5-(1-methyl-1H-pyrrolo[2,3-b]pyridin-3-yl)-4H-pyrrolo[3,2-d]thiazol-2-yl)piperidin-1-yl)ethan-1-one] was run?
A: The pIC50 was under 4.30.

Q: With Cc1c(-c2[nH]c3sc(C4CCN(CC(=O)N(C)C)CC4)nc3c2C(C)C)cn(C)c(=O)c1C [Example 62, 2-(4-(6-isopropyl-5-(1,4,5-trimethyl-6-oxo-1,6-dihydropyridin-3-yl)-4H-pyrrolo[3,2-d]thiazol-2-yl)piperidin-1-yl)-N,N-dimethylacetamide] as the compound, how does the pIC50 read?
A: Its pIC50 is under 4.30.

Q: With Cc1cc(-c2[nH]c3sc(C(=O)N4CCOCC4)nc3c2C(C)C)cn2ncnc12 [Example 398, (6-isopropyl-5-(8-methyl-[1,2,4]triazolo[1,5-a]pyridin-6-yl)-4H-pyrrolo[3,2-d]thiazol-2-yl)(morpholino)methanone] as the compound, how does the pIC50 read?
A: The pIC50 was under 4.30.

Each compound was assayed against T2, human TLR8 (Homo sapiens, UniProt Q9NR97) (assay: TLR8 inhibition reporter assay (HEK-Blue SEAP, R848 stimulation)). Conditions: HEK-Blue cells overexpressing human TLR8, R848 15.9 μM.
T2 sequence (Q9NR97 27-1041): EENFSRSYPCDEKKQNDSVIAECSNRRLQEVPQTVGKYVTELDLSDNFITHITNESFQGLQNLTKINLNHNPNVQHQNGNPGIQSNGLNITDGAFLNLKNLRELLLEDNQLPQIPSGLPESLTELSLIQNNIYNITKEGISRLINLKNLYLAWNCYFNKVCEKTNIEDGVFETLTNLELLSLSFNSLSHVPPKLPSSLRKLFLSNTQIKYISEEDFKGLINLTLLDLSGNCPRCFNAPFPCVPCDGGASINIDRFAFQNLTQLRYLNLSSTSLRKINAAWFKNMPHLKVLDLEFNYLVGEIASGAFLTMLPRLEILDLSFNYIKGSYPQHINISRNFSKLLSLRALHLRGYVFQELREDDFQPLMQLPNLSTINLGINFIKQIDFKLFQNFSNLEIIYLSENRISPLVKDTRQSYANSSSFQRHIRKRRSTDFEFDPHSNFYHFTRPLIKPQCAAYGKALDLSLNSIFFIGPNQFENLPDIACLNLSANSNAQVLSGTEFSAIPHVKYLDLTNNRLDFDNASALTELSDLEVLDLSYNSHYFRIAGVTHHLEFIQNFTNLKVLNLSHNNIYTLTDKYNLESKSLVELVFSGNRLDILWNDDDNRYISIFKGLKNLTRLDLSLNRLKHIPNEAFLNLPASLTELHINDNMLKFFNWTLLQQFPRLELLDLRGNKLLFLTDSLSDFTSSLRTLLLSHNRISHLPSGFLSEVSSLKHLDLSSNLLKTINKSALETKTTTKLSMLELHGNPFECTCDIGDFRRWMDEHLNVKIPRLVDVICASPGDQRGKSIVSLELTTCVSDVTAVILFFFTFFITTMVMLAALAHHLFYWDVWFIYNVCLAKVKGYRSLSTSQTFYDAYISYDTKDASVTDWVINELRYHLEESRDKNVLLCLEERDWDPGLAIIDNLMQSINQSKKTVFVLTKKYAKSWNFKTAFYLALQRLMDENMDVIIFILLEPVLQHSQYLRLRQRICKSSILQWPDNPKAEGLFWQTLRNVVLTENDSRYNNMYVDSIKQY
Type: cell-based
Experimental: as §1, §2

Q: With Cc1cc(-c2[nH]c3sc(N4CCN(CC(C)(C)O)C[C@H]4C)nc3c2C(C)C)cn2ncnc12 [Example 359, (R)-1-(4-(6-isopropyl-5-(8-methyl-[1,2,4]triazolo[1,5-a]pyridin-6-yl)-4H-pyrrolo[3,2-d]thiazol-2-yl)-3-methylpiperazin-1-yl)-2-methylpropan-2-ol] as the compound, how does the pIC50 read?
A: The pIC50 was under 5.51.

Q: Cc1cc(-c2[nH]c3sc(N4CCNC[C@H]4C)nc3c2C(C)C)cn2ncnc12 [Example 311, (R)-6-isopropyl-5-(8-methyl-[1,2,4]triazolo[1,5-a]pyridin-6-yl)-2-(2-methylpiperazin-1-yl)-4H-pyrrolo[3,2-d]thiazole] was tested. Which pIC50 did it give?
A: Its pIC50 is under 5.51.

Q: COCCN1CCN(c2nc3c(C(C)C)c(-c4cc(C)c5ncnn5c4)[nH]c3s2)[C@H](C)C1 [Example 357, (R)-6-isopropyl-2-(4-(2-methoxyethyl)-2-methylpiperazin-1-yl)-5-(8-methyl-[1,2,4]triazolo[1,5-a]pyridin-6-yl)-4H-pyrrolo[3,2-d]thiazole] was tested. Which pIC50 did it give?
A: The pIC50 was under 5.51.

Q: How did the pIC50 turn out when Cc1cc(-c2[nH]c3sc(N4CCN(CC(C)C)C[C@H]4C)nc3c2C(C)C)cn2ncnc12 [Example 361, (R)-2-(4-isobutyl-2-methylpiperazin-1-yl)-6-isopropyl-5-(8-methyl-[1,2,4]triazolo[1,5-a]pyridin-6-yl)-4H-pyrrolo[3,2-d]thiazole] was run?
A: Its pIC50 is under 5.51.
